In brackets after ≈: the same amount, converted by molar mass. Each block holds one compound with its values, some of them ahead of it.
Assays:
[1] = system: Human immunodeficiency virus 1; experiment: Antiviral activity against HIV-1 P236L mutant; assay type: functional, organism-based
[2] = system: Human immunodeficiency virus 1; experiment: Antiviral activity against HIV-1 V106I mutant; assay type: functional, organism-based
[3] = system: Human immunodeficiency virus 1; experiment: Antiviral activity against HIV-1 assessed as reduction in virus-induced cytopathic effect; assay type: functional, organism-based
[4] = system: Human immunodeficiency virus 1; experiment: Antiviral activity against HIV-1 harboring V108I/Y181C double mutant; assay type: functional, organism-based
[5] = system: Human immunodeficiency virus 1; experiment: Antiviral activity against HIV-1 harboring K103N/L100I double mutant; assay type: functional, organism-based
[6] = system: Human immunodeficiency virus 1; experiment: Antiviral activity against HIV-1 K101E mutant; assay type: functional, organism-based
[7] = system: Human immunodeficiency virus 1; experiment: Antiviral activity against HIV-1 harboring K103N/P225H double mutant; assay type: functional, organism-based
[8] = system: Human immunodeficiency virus 1; experiment: Antiviral activity against HIV-1 harboring K103N/V108I double mutant; assay type: functional, organism-based
[9] = system: Human immunodeficiency virus 1; experiment: Antiviral activity against HIV-1 E138K mutant; assay type: functional, organism-based
[10] = system: Human immunodeficiency virus 1; experiment: Antiviral activity against HIV-1 V108I mutant; assay type: functional, organism-based
[11] = system: Human immunodeficiency virus 1; experiment: Antiviral activity against HIV-1 harboring K103N/Y181C double mutant; assay type: functional, organism-based
[12] = system: Human immunodeficiency virus 1; experiment: Antiviral activity against HIV-1 Y181C mutant; assay type: functional, organism-based
[13] = system: Human immunodeficiency virus 1; experiment: Antiviral activity against HIV-1 K103N mutant; assay type: functional, organism-based
[14] = system: Human immunodeficiency virus 1; experiment: Antiviral activity against HIV-1 P225H mutant; assay type: functional, organism-based
[15] = system: Human immunodeficiency virus 1; experiment: Antiviral activity against HIV-1 L100I mutant; assay type: functional, organism-based
[16] = system: Human immunodeficiency virus 1; experiment: Antiviral activity against HIV-1 Y188C mutant; assay type: functional, organism-based
[17] = system: Human immunodeficiency virus 1; experiment: Antiviral activity against HIV-1 G190A mutant; assay type: functional, organism-based
Leishmania = experiment: Antileishmanial activity against Leishmania assessed as reduction in parasite growth; assay type: functional, organism-based
[18] = molecular target: T1, Glutathione S-transferase A1 (Homo sapiens, UniProt P08263); experiment: Inhibition of recombinant human GSTA1-1
T1 sequence (P08263 whole entry): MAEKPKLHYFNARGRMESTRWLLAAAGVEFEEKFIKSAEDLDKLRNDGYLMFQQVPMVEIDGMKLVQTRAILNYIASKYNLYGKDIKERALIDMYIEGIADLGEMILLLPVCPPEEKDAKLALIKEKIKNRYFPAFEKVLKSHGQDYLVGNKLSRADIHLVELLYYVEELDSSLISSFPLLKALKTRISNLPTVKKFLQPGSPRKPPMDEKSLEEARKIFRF

MCF7 = experiment: Antiproliferative activity against human MCF7 cells; assay type: functional, cell-based
CCRF-CEM = experiment: Antiproliferative activity against human CEM cells assessed as reduction in cell viability by MTT assay; assay type: functional, cell-based
K562 = experiment: Antiproliferative activity against human K562 cells assessed as reduction in cell viability by MTT assay; assay type: functional, cell-based
[19] = molecular target: Mitogen-activated protein kinase 14 (Homo sapiens, UniProt Q16539); experiment: Inhibition of P38alphaMAPK (unknown origin)
[20] = Anti-inflammatory activity in human PBMC cells assessed as inhibition of LPS-induced TNF-alpha production; assay type: functional, cell-based
[21] = Anti-inflammatory activity in human PBMC cells assessed as inhibition of LPS-induced […] production; assay type: functional, cell-based
[22] = system: Human immunodeficiency virus 1; experiment: Antiviral activity against HIV-1; assay type: functional, organism-based
[23] = Cytotoxicity against human HUVEC cells assessed as inhibition of cell growth; assay type: toxicity, cell-based
Plasmodium falciparum [24] = experiment: Antiplasmodial activity against Plasmodium falciparum assessed as reduction in parasite growth; assay type: functional, organism-based
[25] = Inhibition of FTase (unknown origin) by Perkin elmer analysis; design: species or system Homo sapiens
Plasmodium falciparum [26] = experiment: In vivo antiplasmodial activity against Plasmodium falciparum infected in mouse model; assay type: functional
Rattus norvegicus [27] = experiment: Anti-hyperlipidemic activity in rat assessed as reduction in total cholesterol level at 15 mg/kg, po measured after 18 hrs; assay type: functional; design: scale not given: the % may be the effect or the level left
Rattus norvegicus [28] = experiment: Anti-hyperlipidemic activity in rat assessed as reduction in triglyceride level at 15 mg/kg, po measured after 18 hrs; assay type: functional; design: scale not given: the % may be the effect or the level left
Ehrlich = experiment: Antiproliferative activity against mouse EAC cell expressing VEGF-A by MTT assay; assay type: functional, cell-based
[29] = Antiproliferative activity against mouse DLA cell expressing VEGF-A by MTT assay; assay type: functional, cell-based

Chain of Mitogen-activated protein kinase 14 (Q16539 whole entry): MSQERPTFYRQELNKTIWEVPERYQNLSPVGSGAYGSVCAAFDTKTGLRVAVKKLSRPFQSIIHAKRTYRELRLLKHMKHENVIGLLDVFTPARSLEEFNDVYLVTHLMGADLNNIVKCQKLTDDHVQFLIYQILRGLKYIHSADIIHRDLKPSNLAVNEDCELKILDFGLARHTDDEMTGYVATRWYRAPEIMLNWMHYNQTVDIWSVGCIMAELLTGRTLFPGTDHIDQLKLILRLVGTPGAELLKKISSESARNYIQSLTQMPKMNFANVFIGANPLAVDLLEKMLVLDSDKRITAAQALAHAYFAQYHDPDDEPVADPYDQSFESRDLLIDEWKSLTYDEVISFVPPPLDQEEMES

SMILES: Cc1cc(S(N)(=O)=O)ccc1NC(=O)COc1ccc(Cl)cc1C(=O)c1cc(F)cc(C(F)(F)F)c1
IC50 [1]: < 10 nM | IC50 [2]: < 10 nM | IC50 [3]: < 2 nM | IC50 [4]: < 10 nM | IC50 [5]: < 10 nM | IC50 [6]: < 10 nM | IC50 [7]: < 10 nM | IC50 [8]: < 10 nM | IC50 [9]: < 10 nM | IC50 [10]: < 10 nM | IC50 [11]: < 10 nM | IC50 [12]: < 10 nM | IC50 [13]: < 10 nM | IC50 [14]: < 10 nM | IC50 [15]: < 10 nM | IC50 [16]: < 10 nM | IC50 [17]: < 10 nM

SMILES: O=C(COc1ccc(C(=O)c2ccccc2)cc1)c1ccc(Cl)c(Cl)c1
IC50 (Leishmania): 1.19 µg/mL (≈ 3.09 µM)

SMILES: O=C(c1ccccc1O)c1cc(Br)ccc1O
IC50 [18]: 180 nM

SMILES: Cc1cccc(C(=O)c2ccc(OCC(=O)NNC(=O)C3CN(Cc4ccccc4)CCO3)c(C)c2)c1 (centres undefined)
IC50 (MCF7): 9300 nM

SMILES: Nc1ccccc1Nc1ccc(C(=O)c2ccccc2)cc1
IC50 [20]: 159 nM | IC50 [21]: 226 nM

SMILES: Cc1cc(C)cc(C(=O)c2cc(Cl)ccc2OC(C)C(=O)Nc2ccc(S(N)(=O)=O)cc2)c1 (centres undefined)
EC50 [22]: 2.9 nM

SMILES: CC(C)(C)c1[nH]cnc1/C=c1\[nH]c(=O)/c(=C/c2ccccc2)[nH]c1=O [PLINABULIN]
IC50 [23]: 10 nM

SMILES: CN(C)CCN(C)C(C(=O)Nc1ccc(NC(=O)/C=C/c2ccc(-c3ccc([N+](=O)[O-])cc3)o2)cc1C(=O)c1ccccc1)c1ccccc1 (centres undefined)
IC50 (Plasmodium falciparum [24]): 32 nM | IC50 [25]: 21 nM | ED50 (Plasmodium falciparum [26]): 16 mg/kg

SMILES: O=C(c1ccccc1)c1cccc(NC(=O)c2ccc(-c3cccc(O)c3)o2)c1
Activity (Rattus norvegicus [27]): 88% | Activity (Rattus norvegicus [28]): 84%

SMILES: Cc1cc(S(N)(=O)=O)ccc1NC(=O)COc1ccc(Cl)cc1C(=O)c1cccc(C#N)c1
IC50 [1]: < 10 nM | IC50 [2]: < 10 nM | IC50 [3]: < 2 nM | IC50 [4]: < 10 nM | IC50 [5]: < 10 nM | IC50 [6]: < 10 nM | IC50 [7]: < 10 nM | IC50 [8]: < 10 nM | IC50 [9]: < 10 nM | IC50 [10]: < 10 nM | IC50 [11]: < 10 nM | IC50 [12]: < 10 nM | IC50 [13]: < 10 nM | IC50 [14]: < 10 nM | IC50 [15]: < 10 nM | IC50 [16]: < 10 nM | IC50 [17]: < 10 nM

SMILES: COc1ccc(-c2csc(NC(=O)COc3ccc(C(=O)c4ccc(F)cc4C)cc3C)n2)cc1
IC50 (Ehrlich): 5000 nM | IC50 [29]: 5000 nM

SMILES: Cc1cc(OCCCS(N)(=O)=O)ccc1NC(=O)COc1ccc(Cl)cc1C(=O)c1cc(F)cc(C(F)(F)F)c1
IC50 [1]: < 10 nM | IC50 [2]: < 10 nM | IC50 [3]: < 2 nM | IC50 [4]: < 10 nM | IC50 [5]: < 10 nM | IC50 [6]: < 10 nM | IC50 [7]: < 10 nM | IC50 [8]: < 10 nM | IC50 [9]: < 10 nM | IC50 [10]: < 10 nM | IC50 [11]: < 10 nM | IC50 [12]: < 10 nM | IC50 [13]: < 10 nM | IC50 [14]: < 10 nM | IC50 [15]: < 10 nM | IC50 [16]: < 10 nM | IC50 [17]: < 10 nM

The remaining lines, values ahead:

IC50 (CCRF-CEM): 1600 nM | IC50 (K562): 1600 nM
SMILES: COc1ccc(C(=O)c2ccc(OCC(=O)N3CCC(CCCC4CCN(C(=O)c5ccc(Cl)cc5)CC4)CC3)cc2)c(OC)c1

IC50 [19]: 14 nM
SMILES: COc1ccc(C#CC(C)(C)N)cc1C(=O)c1ccc(Nc2ccc(F)cc2F)cc1

IC50 [20]: 4 nM | IC50 ([21]; Homo sapiens, PBMC): 14 nM
SMILES: Cc1ccccc1C(=O)c1ccc(Nc2ccc(Br)cc2N)cc1Cl

EC50 [22]: 4.2 nM
SMILES: Cc1cccc(C(=O)c2cc(Cl)ccc2OCC(=O)Nc2ccc([N+](=O)[O-])cc2C)c1

IC50 [20]: 4 nM | IC50 ([21]; Homo sapiens, PBMC): 14 nM
SMILES: Cc1cc(F)ccc1Nc1ccc(C(=O)c2ccccc2C)c(Cl)c1

IC50 (MCF7): 7100 nM
SMILES: Cc1cc(C(=O)c2cccc(Br)c2)ccc1OCC(=O)NNC(=O)C1CN(Cc2ccccc2)CCO1 (centres undefined)

IC50 [19]: 27 nM
SMILES: Cc1cc(C(=O)NC2CC2)ccc1-c1ccc(C(=O)c2cccc(CCC(O)CO)c2)cc1 (centres undefined)

IC50 (CCRF-CEM): 1600 nM | IC50 (K562): 1600 nM
SMILES: COc1ccc(C(=O)c2ccc(OCC(=O)N3CCC(CCCC4CCN(C(=S)c5ccc(Cl)cc5)CC4)CC3)cc2)c(OC)c1

IC50 [20]: 4 nM | IC50 ([21]; Homo sapiens, PBMC): 14 nM
SMILES: Cc1ccccc1C(=O)c1ccc(Nc2ccccc2N)cc1Cl
